Data set [1] has as its system paw inflammation. The data set is described as follows: Carrageenan-induced paw inflammation in mice. The class given is in vivo, mouse. As to conditions: compared with peritonitis model; data not shown.
For data set [2], the system named is dermal vascular leak. The data set is described as follows: Reverse passive Arthus reaction, dermal vascular leak. The data set is classed as in vivo, guinea pig (Hartley). On the procedure: Eighteen hours later both flanks of the animals were shaved and 6.25 or 12.5 µl of rabbit anti-BSA antiserum was injected intradermally (i.d.) at two sites, one on each flank. The animals were then injected i.v. with 1 ml of PBS containing BSA (1 mg/ml) and Evans Blue dye (2 mg/ml; Sigma; St. Louis, MO). Six hours later the animals were euthanized, the skin removed, and the level of induration determined as the diameter (mm) of the extravasation for each site measured on the ventral surface of the skin.

The conditions of data set [3]: mice; data not shown.
The test system of data set [4] is TNF-α. The data set is described as follows: Plasma TNF-α in mouse carrageenan DIC model (ELISA). The data set is classed as in vivo, mouse (CD-1). To be noted: 1 mg (245 nmol) i.p. 18 h before carrageenan, over 24 h, groups of 5 mice. As for the experimental part: (§1) Groups of 10 male CD-1 mice were injected i.p. with 0.25 ml of either vehicle (PBS) or peptide in vehicle at varying times prior to the i.p. injection of 1.0 ml of carrageenan (0.45% [w/v] in PBS; Sigma). In experiments where serum cytokine levels were determined, groups of 5 mice were euthanized at 1-, 2-, 4-, 8-, and 24-h post injection of carrageenan, blood collected by cardiac puncture into heparinized syringes, and the resultant plasma stored at −80°C until assayed by ELISA. […] At 1-, 2-, 4-, and 24-h post injection of carrageenan, five mice from each group were euthanized and heparinized blood samples collected from the heart using heparinized syringes for subsequent determinations of WBC (white blood cell) counts, RBC (red blood cell) counts, or PLT (platelet) counts.
(§2) Cytokine measurements of serum samples from MN10021-treated mice were performed by sandwich ELISA assays (R & D systems) according to the manufacturer’s instructions for use of its kits with sera samples.
For orientation: ELISA stands for enzyme-linked immunosorbent assay.

The test system of data set [5] is IL-6. The data set is described as follows: Plasma IL-6 in mouse carrageenan DIC model (ELISA). As to conditions: 1 mg (245 nmol) i.p. 18 h before carrageenan, peak at 4 h. The data set is classed as in vivo, mouse (CD-1). On the procedure: as §1, §2
Data set [6] has as its system endothelial nitric oxide synthase (eNOS) mRNA. The data set is described as follows: RT-PCR of eNOS mRNA in HUVEC. The class given is cell-based, human. To be noted: data not shown. On the procedure:
(§3) Cells were cultured with various concentrations of test materials, either with or without stimulus, for varying times. The cells were collected, washed and total RNA isolated using the RNeasy Mini Kit (Qiagen; Valencia, CA). Following isolation the RNA was treated with 7 units of DNase I according to the RNase-Free DNase Set (Qiagen; Valencia, CA) protocol. Using these procedures we usually obtained ∼50 µg of total RNA/10^7 cells. cDNA was prepared from the isolated mRNAs and RT-PCR performed on the target cytokines/chemokines/growth factors using appropriate primer pairs and a control primer pair for β-actin (all from R & D Systems; Minneapolis, MN). RT-PCR was generally performed for 30 cycles for β-actin and 35–45 cycles for iNOS and VEGF.

The conditions of data set [7]: reason why binding studies were performed at 37°C.
In data set [8] the test system is iNOS (inducible nitric oxide synthase) mRNA. The data set is described as follows: RT-PCR of iNOS mRNA in HUVEC. The class given is cell-based, human. As to conditions: 50 µM peptide, 3 h, 37°C, quiescent HUVEC, RT-PCR. As for the experimental part:
as §3

The subject of data set [9] is dengue virus. Briefly: Vascular leak in liver of mice injected with dengue virus. Details: species or system mouse. As to conditions: 1 µg intraperitoneal; dengue virus i.v.; preliminary in vivo studies.
For data set [10], the system named is blood leukocyte and platelet counts. The data set is described as follows: Blood cell counts (WBC, PLT) in mouse carrageenan DIC model. The class given is in vivo, mouse (CD-1). To be noted: 245 nmol i.p. 18 h before carrageenan. As for the experimental part: as §1
The subject of data set [11] is HUVEC. Briefly: TNF-α-induced necrosis in HUVEC (Cell Death Detection ELISA, supernatant). The data set is classed as cell-based, human. To be noted: HUVEC pretreated 3 h with 6.25-50 µM peptide, TNF-α 100 ng/ml, overnight. As for the experimental part:
Apoptosis was measured in HUVEC using the Cell Death Detection ELISA^PLUS kit (Roche Diagnostics; Indianapolis, IN) according to the manufacturer's instructions. This assay is based on a quantitative sandwich-enzyme-immunoassay using mouse monoclonal antibodies directed against both DNA and histones, respectively. It allows the specific determination of mono- and oligonucleosomes in the cytoplasmic fraction of cell lysates (apoptosis) and in the supernatant of dying cells (necrosis). The apoptotic index (AI) was calculated as
where treatment refers to use of a known apoptosis- or necrosis-inducing agent (staurosporine, TNF-α).

Data set [12] has as its system systolic blood pressure. The data set is described as follows: SHR rat hypertension model (tail cuff). The class given is in vivo. As for the experimental part:
As part of a general pharmacological screen, MN10021 was evaluated in a rat model of hypertension by MDS-PanLabs (Bothell, WA). […] Blood pressure measurements were made by tail cuff at 1, 2, and 4 h post administration of test compounds. A decrease of ≥10% of the baseline systolic blood pressure is considered significant in this assay.

The subject of data set [13] is carrageenan-induced DIC. Briefly: Mouse carrageenan-induced DIC model, lethality. The class given is in vivo, mouse (CD-1). On the procedure: as §1
Data set [14] concerns inflammatory accumulation of monocytes/macrophages. The data set is described as follows: Mouse NaIO4-induced inflammatory peritonitis model. The data set is classed as in vivo, mouse (CD-1). To be noted: doses as high as 40 µg (10 nmol). On the procedure: Effects of test compounds on the inflammatory accumulation of monocytes/macrophages or neutrophils in vivo were determined using a mouse peritonitis model. Briefly, groups of five 6–8 week old CD-1 outbred mice (Charles River; Raleigh, NC) were injected intraperitoneally (i.p.) with 1.0 ml of a sterile inflammatory stimulus (NaIO4; 5 mM in sterile isotonic saline; Sigma; St. Louis, MO). This procedure results in a dramatic accumulation of neutrophils in the peritoneal cavity which peaks at 6–8 h post injection, followed by an accumulation of monocytes/macrophages which peaks at 48–72 h post injection. Mice were euthanized by CO2 asphyxiation at either 6 h (for neutrophils) or 48 h (for monocyte/macrophages), the peritoneal cavities lavaged with two 10-ml washes of heparinized (10 u/ml; Sigma; St. Louis, MO) HBSS containing 0.1% (w/v) BSA, the washes pooled, and total and differential cells counts determined for each pooled cell suspension. Each test material was evaluated in a group of five mice, each of which was injected subcutaneously in the thigh with 0.2 ml of test material in HBSS 24 h prior to the i.p. injection of the inflammatory stimulus.

[15] abbreviates: 100 mg/kg orally (gavage), groups of 3 SHR rats, tail cuff, vs 0 h value.

Values joined by “and” are separate entries in the source; they are usually repeats but may differ in a detail not shown here. Equal entries are not always repeated. “Also recorded” adds a separate entry of the source. Where a SMILES comes first, the peptide text is derived from it. Bridges are numbered along the chain shown (N, C = ends). Roman numbers before positions name the chains, in order.

Turning to `CC(C)C[C@H](NC(=O)CNC(=O)CNC(=O)[C@H](CCC(=O)O)NC(=O)[C@H](CCCCN)NC(=O)[C@H](CC(C)C)NC(=O)[C@H](Cc1ccccc1)NC(=O)[C@H](CC(C)C)NC(=O)[C@H](CC(C)C)NC(=O)[C@H](CC(=O)O)NC(=O)[C@H](CC(C)C)NC(=O)CNC(=O)[C@H](CCCNC(=N)N)NC(=O)[C@H](CCCNC(=N)N)NC(=O)[C@H](CC(N)=O)NC(=O)[C@H](CCC(N)=O)NC(=O)[C@@H](N)CC(C)C)C(=O)N[C@@H](CSSC[C@H](NC(=O)[C@H](CC(C)C)NC(=O)CNC(=O)CNC(=O)[C@H](CCC(=O)O)NC(=O)[C@H](CCCCN)NC(=O)[C@H](CC(C)C)NC(=O)[C@H](Cc1ccccc1)NC(=O)[C@H](CC(C)C)NC(=O)[C@H](CC(C)C)NC(=O)[C@H](CC(=O)O)NC(=O)[C@H](CC(C)C)NC(=O)CNC(=O)[C@H](CCCNC(=N)N)NC(=O)[C@H](CCCNC(=N)N)NC(=O)[C@H](CC(N)=O)NC(=O)[C@H](CCC(N)=O)NC(=O)[C@@H](N)CC(C)C)C(=O)O)C(=O)O` [MN10021] (I: H-LQNRRGLDLLFLKEGGLC-OH / II: H-LQNRRGLDLLFLKEGGLC-OH; disulfide I:18-II:18), the “activity in carrageenan-induced paw inflammation” value in data set [1] is “equally active”. For the same compound, the “block of vascular leak, challenge 6.25 µl anti-BSA” value in data set [2] (250 or 500 µg s.c. 18 h before challenge, Evans Blue extravasation diameter at 6 h) was “completely blocked”. In data set [2] (only the highest dose (500 µg) s.c. 18 h before challenge, Evans Blue extravasation at 6 h), the “block of vascular leak, challenge 12.5 µl anti-BSA” value is on record as “completely blocked”. For the same compound, the “time to detection in the blood after s.c. injection” value in data set [3] is given as at most 15 min. Moreover, the “block of carrageenan-induced increase in plasma TNF-α” value in data set [4] was ~85% and > 80%. Moreover, the “block of peak plasma IL-6 response” value in data set [5] is on record as “about 50%”. Besides, in [6], the “effect on expression of mRNA for eNOS” value is on record as “Neither MN10021 nor DUK0005 affected”. Besides, the “solubility at lower temperatures” value in [7] was “insolubility”. In addition, the “induction of mRNA for iNOS in HUVEC” value in data set [8] is “induces mRNA for iNOS”. Besides, the “effect on vascular leak in the liver of dengue virus-injected mice” value in [9] was “inhibit the vascular leak”. For the same compound, in [10], the “effect on carrageenan-induced leukocytosis (WBC)” value is recorded as “prevented much of the leukocytosis”. For the same compound, the “PLT count of treated mice, percent of normal” value in data set [10] (over the 24 h period) is recorded as “approximately 50%”. In addition, the “protection against TNF-α-induced necrosis” value in data set [11] is on record as “significant protection; also recorded: block almost completely”. Moreover, in [12] (30 mg/kg orally, data not shown), the “decreases in blood pressure at the three time points (1, 2, 4 h)” value is 3–4%. In addition, in [12] (setting [15]), the “decrease in blood pressure at 1 h” value came to 12%, the “decrease in blood pressure at 2 h” value came to 15% and the “decrease in blood pressure at 4 h” value turned out to be 13%. The “lowering of blood pressure within 1 h” value in [12] (orally-administered (abstract)) is listed as 10–15%. Further, the “protection in lethal model of carrageenan-induced DIC” value in data set [13] (73 nmol) is “completely protects”. Also, the “mice protected from lethal carrageenan” value in [13] (30 µg (7 nmol) i.p. 18 h prior to carrageenan, groups of 10 CD-1 mice) is given as “approximately 50%”. Moreover, the “survival time after carrageenan” value in data set [13] (1 mg (245 nmol) i.p. before i.p. carrageenan, 120 h longest time observed) is on record as “at least 120 h”.

As for “H-LGGEKLFLLDGRNQLC-OH (disulfide (positions not given here)) [MN20050]”, in data set [14], the “anti-inflammatory activity in peritonitis model” value was “no anti-inflammatory activity”.

Values taken from publication PMC3527569, “Anti-Inflammatory and Vasoprotective Activity of a Retroviral-Derived Peptide, Homologous to Human Endogenous Retroviruses: Endothelial Cell Effects” (PLoS ONE, 2012).
